Source: publication PMC6691788, “Design and synthesis of phthalazine-based compounds as potent anticancer agents with potential antiangiogenic activity via VEGFR-2 inhibition” (Journal of Enzyme Inhibition and Medicinal Chemistry, 2019)

Experiments:
Test in all cases: NCI 60 cell panel SRB screen
Format in all cases: cell-based
[1] = system: HOP-62; details: Homo sapiens; for GI50 / IC (TGI) / CC50: HOP-62, 5 log dose; for CC50: 48 h, read-out: LC50 (the source's name); for activity at 10 µM: HOP-62, single dose 10 μM, read-out: percent cell growth promotion
[2] = system: SF-268; details: Homo sapiens; for GI50 / IC (TGI) / CC50: SF-268, 5 log dose; for CC50: 48 h, read-out: LC50 (the source's name); for activity at 10 µM: SF-268, single dose 10 μM, read-out: percent cell growth promotion
[3] = system: PC-3; details: Homo sapiens; for GI50 / IC (TGI) / CC50: PC-3, 5 log dose; for CC50: 48 h, read-out: LC50 (the source's name); for activity at 10 µM: PC-3, single dose 10 μM, read-out: percent cell growth promotion
[4] = system: MDA-MB-468; details: Homo sapiens; for activity at 10 µM: MDA-MB-468, MDA-MBA-468, single dose 10 μM, read-out: percent cell growth promotion; for GI50 / IC (TGI) / CC50: MDA-MB-468, 5 log dose; for CC50: 48 h, read-out: LC50 (the source's name)
Procedure: The human tumor cell lines of the cancer-screening panel were grown in RPMI 1640 medium containing 5% fetal bovine serum and […] L-glutamine. For a typical screening experiment, cells are inoculated into 96 well microtiter plates in 100 ml at plating densities ranging from 5000 to 40,000 cells/well depending on the doubling time of individual cell lines. After cell inoculation, the microtiter plates are incubated at 37 °C, 5% CO2, 95% air and 100%
relative humidity for 24 h prior to addition of experimental drugs. After 24 h, two plates of each cell line are fixed in situ with TCA, to represent a measurement of the cell population for each cell line at the time of drug addition (Tz). Experimental drugs are dissolved in dimethyl sulfoxide at 400-fold the desired final maximum test concentration and stored frozen prior to use. At the time of drug addition, an aliquot of frozen concentrate is thawed and diluted to twice the desired final maximum test concentration with complete medium containing […] Gentamicin. Additional four, 10-fold or ½log serial dilutions are made to provide a total of five drug concentrations plus control. Aliquots of […] of these different drug dilutions are added to the appropriate microtiter wells already containing 100 ml of medium, resulting in the required final drug concentrations. Following drug addition, the plates are incubated for an additional 48 h at 37 °C, 5% CO2, 95% air, and 100% relative humidity. For adherent cells, the assay is terminated by the addition of cold TCA. Cells are fixed in situ by the gentle addition of […] of cold 50% (w/v) TCA (final concentration,10% TCA) and incubated for 60 min at 4 °C. The supernatant is discarded, and the plates are washed five times with tap water and air dried. Sulforhodamine B (SRB) solution (100 ml) at 0.4% (w/v) in 1% acetic acid is added to each well, and plates are incubated for 10 min at room temperature. After staining, unbound dye is removed by washing five times with 1% acetic acid and the plates are air dried. Bound stain is subsequently dissolved with 10 μM trizma base, and the absorbance is read on an automated plate reader at a wavelength of 515 nm. For suspension cells, the methodology is the same except that the assay is terminated by fixing settled cells at the bottom of the wells by gently adding […] of 80% TCA (final concentration, 16% TCA).
Using the seven absorbance measurements [time zero, (Tz), control growth, (C), and test growth in the presence of drug at the five concentration levels (Ti)], the percentage growth is calculated at each of the drug concentrations levels. Percentage growth inhibition is calculated as: [(Ti -Tz)/(C - Tz)] x 100 for concentrations for which Ti>/ ¼ Tz and [(Ti -Tz) / Tz] x100 for concentrations for which Ti <Tz.
Three dose response parameters are calculated for each experimental agent. Growth inhibition of 50% (GI50) is calculated from [(Ti -Tz)/(C - Tz)] x 100 =50, which is the drug concentration resulting in a 50% reduction in the net protein increase (as measured by SRB staining) in control cells during the drug incubation. The drug concentration resulting in total growth inhibition (TGI) is calculated from Ti ¼ Tz. The LC50 (concentration of drug resulting in a 50% reduction in the measured protein at the end of the drug treatment as compared to that at the beginning) indicating a net loss of cells following treatment is calculated from [(Ti - Tz) / Tz] x100 = -50. Values are calculated for each of these three parameters if the level of activity is reached; however, if the effect is not reached or is exceeded, the value for that parameter is expressed as greater or less than the maximum or minimum concentration tested.

[5] = system: LOX IMVI; details: Homo sapiens; for CC50: 5 log dose, 48 h, read-out: LC50 (the source's name); for IC (TGI): read-out: TGI; for activity at 10 µM: read-out: percent cell growth promotion
[6] = system: HS 578T; details: Homo sapiens; for GI50 / IC (TGI) / activity at 10 µM: Hs-578T; for IC (TGI): read-out: TGI; for activity at 10 µM: read-out: percent cell growth promotion; for CC50: HS 578T, 5 log dose, 48 h, read-out: LC50 (the source's name)

**Q.** `Clc1ccc(Nc2nnc(COc3ccccc3)c3ccccc23)cc1` [Compound 17a, N-(4-Chlorophenyl)-4-(phenoxymethyl)phthalazin-1-amine] was tested. Which GI50 [1] did it give?
**A.** 2.51 µM

**Q.** And the IC (TGI) [1]?
**A.** 7.74 µM

**Q.** What about the CC50 [1] of the same molecule?
**A.** 23.9 µM

**Q.** And the activity at 10 µM [1]?
**A.** 13.1%

**Q.** And the GI50 [2]?
**A.** 2.23 µM

**Q.** What about the IC (TGI) [2] of the same molecule?
**A.** 12.9 µM

**Q.** What about the CC50 [2] of the same molecule?
**A.** > 25 µM

**Q.** And the activity at 10 µM [2]?
**A.** 13.2%

**Q.** What about the GI50 [3] of the same molecule?
**A.** 1.3 µM

**Q.** And the IC (TGI) [3]?
**A.** 10.1 µM

**Q.** And the CC50 [3]?
**A.** > 25 µM

**Q.** And the activity at 10 µM [3]?
**A.** -0.2%

**Q.** What about the activity at 10 µM [4] of the same molecule?
**A.** -16.9%

**Q.** What about the GI50 [4] of the same molecule?
**A.** 1.49 µM

**Q.** And the IC (TGI) [4]?
**A.** 7.62 µM

**Q.** What about the CC50 [4] of the same molecule?
**A.** > 25 µM

**Q.** And the GI50 [5]?
**A.** 1.29 µM

**Q.** And the CC50 [5]?
**A.** 11.9 µM

**Q.** And the IC (TGI) [5]?
**A.** 4.85 µM

**Q.** And the activity at 10 µM [5]?
**A.** -62%

**Q.** What about the GI50 [6] of the same molecule?
**A.** 2.58 µM

**Q.** What about the IC (TGI) [6] of the same molecule?
**A.** 10.5 µM

**Q.** What about the activity at 10 µM [6] of the same molecule?
**A.** 14.4%

**Q.** And the CC50 [6]?
**A.** > 25 µM

**Q.** `O=C(Nc1ccc(Nc2nncc3ccccc23)cc1)c1ccc(Cl)cc1` [Compound 5b, 4-Chloro-N-(4-(phthalazin-1-ylamino)phenyl)benzamide] was tested. Which activity at 10 µM [1] did it give?
**A.** 91.8%

**Q.** What about the activity at 10 µM [2] of the same molecule?
**A.** 98%

**Q.** And the activity at 10 µM [3]?
**A.** 91.6%

**Q.** What about the activity at 10 µM [4] of the same molecule?
**A.** 101%

**Q.** And the activity at 10 µM [5]?
**A.** 99.9%

**Q.** What about the activity at 10 µM [6] of the same molecule?
**A.** 105%

**Q.** For `O=C(Nc1ccc(Cl)cc1)Nc1ccc(Nc2nncc3ccccc23)cc1` [Compound 6b, 1–(4-Chlorophenyl)-3–(4-(phthalazin-1-ylamino)phenyl)urea], which GI50 [1] is on record?
**A.** 3 µM

**Q.** What about the IC (TGI) [1] of the same molecule?
**A.** 14.9 µM

**Q.** What about the CC50 [1] of the same molecule?
**A.** 74.9 µM

**Q.** What about the activity at 10 µM [1] of the same molecule?
**A.** 20.6%

**Q.** What about the GI50 [2] of the same molecule?
**A.** 3.19 µM

**Q.** And the IC (TGI) [2]?
**A.** 28.1 µM

**Q.** What about the CC50 [2] of the same molecule?
**A.** > 100 µM

**Q.** And the activity at 10 µM [2]?
**A.** 42.4%

**Q.** And the GI50 [3]?
**A.** 2.32 µM

**Q.** And the IC (TGI) [3]?
**A.** 11 µM

**Q.** And the CC50 [3]?
**A.** 55.4 µM

**Q.** What about the activity at 10 µM [3] of the same molecule?
**A.** 1.46%

**Q.** What about the activity at 10 µM [4] of the same molecule?
**A.** 0.17%

**Q.** And the GI50 [4]?
**A.** 2.57 µM

**Q.** What about the IC (TGI) [4] of the same molecule?
**A.** 9.47 µM

**Q.** What about the CC50 [4] of the same molecule?
**A.** > 100 µM

**Q.** What about the GI50 [5] of the same molecule?
**A.** 0.82 µM

**Q.** And the CC50 [5]?
**A.** 53.2 µM

**Q.** And the IC (TGI) [5]?
**A.** 14.6 µM

**Q.** And the activity at 10 µM [5]?
**A.** 33.6%

**Q.** What about the GI50 [6] of the same molecule?
**A.** 3.83 µM

**Q.** And the IC (TGI) [6]?
**A.** 27.7 µM

**Q.** And the activity at 10 µM [6]?
**A.** 58.3%

**Q.** What about the CC50 [6] of the same molecule?
**A.** > 100 µM

**Q.** `O=C(Nc1ccc(Cl)cc1)Nc1ccc(Oc2nncc3ccccc23)cc1` [Compound 7b, 1–(4-Chlorophenyl)-3–(4-(phthalazin-1-yloxy)phenyl)urea] was tested. Which GI50 [1] did it give?
**A.** 1.09 µM

**Q.** And the IC (TGI) [1]?
**A.** 4.32 µM

**Q.** And the CC50 [1]?
**A.** 47.7 µM

**Q.** And the activity at 10 µM [1]?
**A.** 26.7%

**Q.** And the GI50 [2]?
**A.** 1.35 µM

**Q.** What about the IC (TGI) [2] of the same molecule?
**A.** 7.21 µM

**Q.** What about the CC50 [2] of the same molecule?
**A.** 70.2 µM

**Q.** And the activity at 10 µM [2]?
**A.** 12.6%

**Q.** What about the GI50 [3] of the same molecule?
**A.** 1.64 µM

**Q.** And the IC (TGI) [3]?
**A.** 6.08 µM

**Q.** What about the CC50 [3] of the same molecule?
**A.** 35.6 µM

**Q.** What about the activity at 10 µM [3] of the same molecule?
**A.** -29%

**Q.** And the activity at 10 µM [4]?
**A.** -76.2%

**Q.** What about the GI50 [4] of the same molecule?
**A.** 0.75 µM

**Q.** And the IC (TGI) [4]?
**A.** 2.52 µM

**Q.** And the CC50 [4]?
**A.** 7.18 µM

**Q.** And the GI50 [5]?
**A.** 0.16 µM

**Q.** And the CC50 [5]?
**A.** 1.63 µM

**Q.** What about the IC (TGI) [5] of the same molecule?
**A.** 0.45 µM

**Q.** And the activity at 10 µM [5]?
**A.** -77.3%

**Q.** And the GI50 [6]?
**A.** 0.69 µM

**Q.** And the IC (TGI) [6]?
**A.** 47 µM

**Q.** And the activity at 10 µM [6]?
**A.** 37.5%

**Q.** And the CC50 [6]?
**A.** > 100 µM
